Reference: patent publication US11851459B2, “Methods and uses of modulators of anaphase promoting complex (APC) activity for treating cancer” (University of Saskatchewan, priority 2018, dated 2023)

Tests used:
apc10Δ cells = experiment: apc10Δ temperature sensitive growth, spot dilutions; type: cell-based, yeast; conditions: 30 and 34° C., weakly expressed on glucose
Excerpt: A. Yeast 2-hybrid (Y2H) cells expressing the APC subunit bait and the galactose inducible Apc10 peptide prey grown on glucose or galactose. Cells co-expressing the Apc5 or Apc10-bait and Apc10 aptamer-prey vectors were spotted onto the appropriate media, in the presence or absence of galactose (the aptamers are Gal inducible), to confirm Y2H interactions. Growth on trp^− his^− media ensures both plasmids are maintained. A Y2H interaction will drive expression of the ADE2 gene, allowing growth on ade^− media. B. Aptamers that bind Apc10 can suppress APC mutant phenotypes. Spot dilutions of apc10Δ cells expressing an empty vector control or the one of 6 Apc10 aptamers tested. Log phase cells were 10-fold serially diluted and spotted onto plates containing either 2% glucose or 2% galactose. The plates were then incubated at 30° C. (permissive temperature) and 34° C. (restrictive stress). C. Peptides identified as binding to the yeast Apc10 APC subunit using the Y2H screen increase growth of wildtype (WT) cells. […]
The six peptide expressing vectors were transformed into apc10Δ cells and assessed for temperature sensitive growth. […]
Over 100 peptides that bound either Apc5 or Apc10 were recovered from millions screened. […] Vectors expressing these 6 peptides were transformed into WT or APC mutant cells and assessed for ts growth.

WT cells = experiment: Stationary phase WT cells spot diluted (chronological lifespan / stress resistance); type: cell-based, yeast; conditions: FIG. 2B; for stress resistance: WT cells grown to stationary phase, spot diluted; for chronological lifespan: WT cells
Protocol: (§1) A. apc5^CA (temperature sensitive allele) cells were transformed with C43-4 or an empty vector. Cells grown overnight in 2% Glu were struck onto 2% Glucose plates and used for the yeast RLS assay. From the top left hand corner of the figures, top line is WT +empty vector, middle line is apc5^CA+C43-4 peptide and bottom line is apc5^CA+empty vector. B. WT cells transformed with C43-4, C2-4B or an empty vector were grown to stationary phase in 2% Glu media, then after 2 days spot diluted onto 2% Glu or 2% Gal to induce expression of the peptides.

apc5^CA cells = experiment: Yeast replicative lifespan (RLS) assay; type: cell-based
Protocol: as §1

wild type (WT) cells = experiment: C43-4 mutant peptides, spot dilution under temperature and UV stress, WT cells; type: cell-based, yeast; conditions: low level expression on glucose
Protocol: The cells were exposed to 5 sec of UV from a UV box prior to incubation. The plus signs define growth compared to the empty vector control.
Residues 2, 7, 8, 10, 12 and 14 of peptide C43-4 are conserved with Htz1. All of these residues were mutated to alanine (FIG. 10). Peptides that contained mutations designed to determine which amino acids were required for function were generated. These mutant peptides were grown in wild type cells and in cells that had APC10 mutated, under temperature and UV stress conditions (FIGS. 10-12).
These cells were spot diluted on Trp^− plates and grown at the temperatures shown and/or exposed to ultraviolet (UV) irradiation (FIGS. 10-12). At low level expression on glucose, some of the mutations caused stress dependent phenotypes.
• 1. Cells were cultured overnight in Trp^− 2% glucose media • 2. The growth of the cells was determined by measuring the optical density (OD) of the cells at 600 nm (OD600) • 3. Cells were diluted to OD600 of 1 with fresh culture media • 4. 100 ul of each culture was pipetted into a well of a 96 well plate • 5. 10 ul of the each starting culture was pipetted into 90 ul of water in 4 additional wells to make a 10-fold serial spot dilution • 6. 5 ul from each serial dilution was spotted onto plates containing standard growth media with either 2% glucose or 2% galactose using a multi-pipettor • 7. The plates were exposed to UV • 8. […]

MDA-MB-231 cells = experiment: DOX sensitivity, MTT viability assay, MDA-MB-231 cells expressing peptides; type: cell-based, human; conditions: for sensitivity to DOX treatment: DOX 1 uM 48 hrs
Protocol: A. Transient transfection of the C43-4 peptide plasmid into human triple negative MDA-MB-231 breast cancer cells followed by Western blot analysis of lysates against Cyclin B, Securin and Cdc20 showing enhanced protein loss. B. Cells in A were treated with DOX (1 uM) for 48 hrs with cell viability measured using an MTT assay kit. The experiment was done in triplicate with standard error of the means shown.
A. Stable integration of C43-4 in MDA-MB-231 cells was established by selection of transfected cells on Geneticin for 7 days. Westerns against APC substrates show APC activation. B. Cells in A were treated with DOX (1 uM) for 48 hrs with cell viability measured using an MTT assay kit. Mean and SEM of 3 biological repeats.
A. TNBC MDA-MB-231 cells stably expressing APC binding peptides activate the APC. Cells were grown to confluence and then used to prepare protein lysates. The lysates were used to measure levels of the APC substrate CDC20, which will be reduced if the APC is activated. Cells stably expressing the pcDNA empty vector were used as a control. B. In a similar experiment, MDA-MB-231 cells stably expressing the APC binding peptides shown, or the empty vector control, were used to measure protein levels of the APC substrate HURP using Westerns. C. Triplicate blots as in B were scanned, normalized to tubulin and plotted. Error of the mean is shown. Significant changes are indicated. D. MDA-MB-231 cells stably expressing the empty pcDNA vector, or the C43-4 and C13-3 APC binding peptides, were treated with 1 μM Doxorubicin for 24 hrs. Cell viability was measured using an MTT viability assay.
In FIG. 26B, MDA-MB-231 cells were also stably transfected with the peptides C1-8, C2-4B, C3-1B, and C9-5. Levels of the APC substrate HURP were measured in lysates prepared from these cells. […] The empty vector pcDNA was also stably expressed in 231 cells and used as a control.

Sequence	apc10Δ growth phenotype (apc10Δ cells)	stress resistance (WT cells)	chronological lifespan (WT cells)	replicative lifespan (apc5^CA cells)	stress resistance (growth compared to empty vector) (wild type (WT) cells)	synergy with Doxorubicin (killing effect) (MDA-MB-231 cells; stably transfected, 1 uM Doxorubicin 24 hours)	sensitivity to DOX treatment (MDA-MB-231 cells; stably transfected)	sensitivity to DOX treatment (MDA-MB-231 cells; transiently transfected)
RMPQWWQWMWV [C2-4B]	suppressed the apc10Δ growth phenotype	increase stress resistance	improved chronological lifespan					
NGSSHNDLRVRRLTLISRLC [C43-4]	suppressed the apc10Δ growth phenotype	increase stress resistance	improved chronological lifespan	increased replicative lifespan	increased stress resistance	synergize	resensitized	resensitized
